Experimental data from US10604487B2, “Pyridinol derivative or pharmaceutically acceptable salt thereof, and pharmaceutical composition containing same as active ingredient” (Research Cooperation Foundation of Yeungnam University, priority 2016, dated 2020).

Legend:
[1] = tested on: TNF-α-induced adhesion of monocytes to intestinal epithelial cells; test: Inhibitory activity against TNF-α-induced adhesion of monocytes (U937) to intestinal epithelial cells (HT-29); assay type: cell-based, human; settings: Homo sapiens, 1 μM test drug; HT-29/U937 adhesion, 10 ng/mL TNF-α; read-out: Inhibitory activity (%)
Method: HT-29 human colorectal cancer-derived epithelial cells and U937 human-derived monocytic cells were cultured in an RPMI 1640 medium containing 10% FBS and 1% penicillin/streptomycin (PS) at 37° C. under a condition of 5% CO2, and when the cells were grown to 80% or more in a culture flask, they were subcultured in a ratio of 1:3 to be used in this test. The HT-29 cells were cultured in a 24-well plate at a concentration of 2×10^5 cells/cm2, and then the medium only containing 1% FBS and 1% PS was pretreated with a test drug for 1 hour. Afterward, BCECF-loaded U937 cells by being treated with 10 μg/mL of BCECF-AM at 37° C. for 30 minutes and 10 ng/mL of TNF-α reacted with the HT-29 cells previously treated with the test drug at 37° C. for 3 hours. After the reaction, the medium was removed, and then the cells were washed with PBS twice to remove U937 cells that were not adhered. In a subsequent step, for cell lysis, 0.1% Triton X-100 (0.1 M Tris) was treated to allow a reaction at room temperature for 30 minutes, and then fluorescence was measured using a Fluostar optima microplate reader (BMG LABTECH, Germany) to quantify the cells (Carvalho et al., 1996; Thapa et al., 2008).

[2] = Cytotoxicity test (MTT), U937; assay type: cell-based; settings: human, U937, 48 h; for viability at 48 h, 0.01 µM / viability at 48 h, 0.1 µM / viability at 48 h, 1 µM / viability at 48 h, 10 µM / viability at 48 h, 100 µM: U937 cells (monocytic blood cancer-derived cell line), read-out: Cell viability (% of control); for IC50 at 48 h: U937 cells
Method: (§1) The human colorectal cancer cell line HT-29 and the monocytic blood cancer-derived cell line U937 were cultured in a RPMI 1640 medium containing 10% FBS and 1% penicillin/streptomycin (PS) at 37° C. under a condition of 5% CO2, and when the cells used herein were grown to 80% or more, they were subcultured at a ratio of 1:3.
(§2) Each type of cells were cultured in a 96 well plate at a concentration of 1×10^5 cells/cm2, treated with a test compound by concentration in a medium only containing 1% FBS and 1% PS at 37° C. under a condition of 5% CO2 for 48 hours and reacted with 5 mg/mL of a 3-[4,5-dimethylthiazol-2-yl]-2,5-diphenyltetrazolium bromide (MTT) reagent for 4 hours, and then the medium was completely removed, the cells were treated with DMSO, formazan crystals were dissolved for 30 minutes, and then absorbance was measured at 540 nm.

[3] = Cytotoxicity test (MTT), HT-29; assay type: cell-based; settings: human, HT-29, 48 h; for viability at 48 h, 0.01 µM / viability at 48 h, 0.1 µM / viability at 48 h, 1 µM / viability at 48 h, 10 µM / viability at 48 h, 100 µM: HT-29 cells (colorectal cancer cell line), read-out: Cell viability (% of control); for IC50 at 48 h: HT-29 cells
Method: as §1, §2

[4] = read-out: IC50 (μM), cytotoxicity

| Structure (SMILES) | inhibition at 1 µM [1] [%] | viability at 48 h, 0.01 µM [2] [%] | viability at 48 h, 0.1 µM [2] [%] | viability at 48 h, 1 µM [2] [%] | viability at 48 h, 10 µM [2] [%] | viability at 48 h, 100 µM [2] [%] | IC50 at 48 h [2] [µM] | viability at 48 h, 0.01 µM [3] [%] | viability at 48 h, 0.1 µM [3] [%] | viability at 48 h, 1 µM [3] [%] | viability at 48 h, 10 µM [3] [%] | viability at 48 h, 100 µM [3] [%] | IC50 at 48 h ([3]; text of b533, read-out: cytotoxicity IC50 for HT-29) [µM] | IC50 at 48 h [3, 4] [µM] |
| --- | --- | --- | --- | --- | --- | --- | --- | --- | --- | --- | --- | --- | --- | --- |
| CCCNC(=O)Nc1nc(C)c(O)c(C)c1C [Compound 16-1, 1-(5-hydroxy-3,4,6-trimethylpyridin-2-yl)-3-propylurea] | 18.2 | 89.1 ± 3.5 | 88.4 ± 3.5 | 90 ± 4.8 | 75.2 ± 0.9 | 44.2 ± 0.7 | 15.4 | 94.9 ± 6.5 | 84.4 ± 7.6 | 84.4 ± 4.2 | 70.9 ± 6.2 | 42.8 ± 2.7 | 64.6 |  |
| Cc1nc(NC(=O)Nc2ccc(Cl)cc2)c(C)c(C)c1O [Compound 16-3, 1-(4-Chlorophenyl)-3-(5-hydroxy-3,4,6-trimethylpyridin-2-yl)urea] | 7.7 | 89.4 ± 2.7 | 89.7 ± 3.1 | 81 ± 3.1 | 81 ± 2.2 | 66 ± 0.1 | > 100 | 104 ± 6.1 | 102 ± 6.4 | 103 ± 11.1 | 89.3 ± 4.8 | 69.2 ± 6.1 |  | > 100 |
| Cc1cccc(C(C)(C)C)c1NC(=O)Nc1nc(C)c(O)c(C)c1C [Compound 16-4, 1-(2-tert-butyl-6-methylphenyl)-3-(5-hydroxy-3,4,6-trimethylpyridin-2-yl)urea] | 34.3 | 95 ± 2.9 | 91.2 ± 1.9 | 91.3 ± 1.2 | 85.4 ± 0.2 | 75.5 ± 1.7 | > 100 | 76.6 ± 6.9 | 76.8 ± 5 | 74.7 ± 6 | 62.1 ± 2.9 | 43.6 ± 1.8 |  | 34.7 |
| Cc1nc(NC(=O)Nc2cccc3ccccc23)c(C)c(C)c1O [Compound 16-5, 1-(5-hydroxy-3,4,6-trimethylpyridin-2-yl)-3-(naphthalen-1-yl)urea] | 20.2 | 88.1 ± 1.9 | 85.4 ± 6.4 | 90.9 ± 1.2 | 88.5 ± 2.8 | 79.6 ± 2.7 | > 100 | 105 ± 1.1 | 94.3 ± 2.1 | 78.6 ± 10.1 | 73.4 ± 5.6 | 76.7 ± 1.1 |  | > 100 |
| Cc1nc(NC(=O)NS(=O)(=O)c2ccccc2)c(C)c(C)c1O [Compound 16-6, N-((5-hydroxy-3,4,6-trimethylpyridin-2-yl)carbamoyl)benzenesulfonamide] | 17.5 | 91.6 ± 2.6 | 94.3 ± 2.6 | 85.8 ± 2.7 | 83.5 ± 1.1 | 84.9 ± 2 | > 100 | 90 ± 3.5 | 85.4 ± 0.9 | 76 ± 7.2 | 77.9 ± 3.5 | 53.6 ± 2.5 |  | > 100 |
| CCCCNC(=S)Nc1nc(C)c(O)c(C)c1C [Compound 18-1, 1-butyl-3-(5-hydroxy-3,4,6-trimethylpyridin-2-yl)thiourea] | -19.9 | 95.4 ± 0.6 | 94.9 ± 1.2 | 92.9 ± 0.6 | 91 ± 0.9 | 55 ± 1.1 | > 100 | 93.5 ± 3.4 | 95.2 ± 1.7 | 96.9 ± 1.4 | 96.5 ± 2.3 | 60.3 ± 0.5 |  | > 100 |
| Cc1nc(NC(=S)NC2CCCCC2)c(C)c(C)c1O [Compound 18-3, 1-cyclohexyl-3-(5-hydroxy-3,4,6-trimethylpyridin-2-yl)thiourea] | ≥ 50 | 88.8 ± 7 | 93.1 ± 1 | 97.6 ± 1.3 | 87.7 ± 2 | 84.3 ± 1.5 | > 100 | 90.9 ± 5.1 | 80.5 ± 10.4 | 66.8 ± 6.2 | 67 ± 5 | 51.3 ± 6.7 |  | > 100 |
| Cc1nc(NC(=S)Nc2ccccc2)c(C)c(C)c1O [Compound 18-4, 1-(5-hydroxy-3,4,6-trimethylpyridin-2-yl)-3-phenylthiourea] | 49.7 | 99.5 ± 2.1 | 101 ± 1.9 | 96.7 ± 1.7 | 96.1 ± 1.4 | 70.6 ± 0.8 | > 100 | 96.6 ± 2.1 | 97 ± 4.4 | 99 ± 5 | 96.6 ± 2.4 | 76 ± 4.9 |  | > 100 |
| Cc1nc(NC(=S)Nc2ccc(Cl)cc2)c(C)c(C)c1O [Compound 18-6, 1-(4-chlorophenyl)-3-(5-hydroxy-3,4,6-trimethylpyridin-2-yl)thiourea] | ≥ 50 | 99.6 ± 0.5 | 96.8 ± 1.9 | 91.6 ± 2.6 | 86.4 ± 1.7 | 80.7 ± 2.5 | > 100 | 95.2 ± 3.2 | 86.6 ± 4.9 | 83.6 ± 3.3 | 72.8 ± 2.8 | 65.3 ± 1.9 |  | > 100 |
